Experimental data reported in patent US20240228448A1 (Washington University, priority 2021, published 2024).
Like-named read-outs stand apart in the source and are kept apart here. Values belong to the molecule of their own block, whether it stands above or below them.

Assays:
S1P4 = molecular target: T1, S1P4 (Homo sapiens, UniProt O95977); test: competitive S1Ps cell membrane binding assay against [32P]S1P, S1P4
T1 sequence (O95977 1-384): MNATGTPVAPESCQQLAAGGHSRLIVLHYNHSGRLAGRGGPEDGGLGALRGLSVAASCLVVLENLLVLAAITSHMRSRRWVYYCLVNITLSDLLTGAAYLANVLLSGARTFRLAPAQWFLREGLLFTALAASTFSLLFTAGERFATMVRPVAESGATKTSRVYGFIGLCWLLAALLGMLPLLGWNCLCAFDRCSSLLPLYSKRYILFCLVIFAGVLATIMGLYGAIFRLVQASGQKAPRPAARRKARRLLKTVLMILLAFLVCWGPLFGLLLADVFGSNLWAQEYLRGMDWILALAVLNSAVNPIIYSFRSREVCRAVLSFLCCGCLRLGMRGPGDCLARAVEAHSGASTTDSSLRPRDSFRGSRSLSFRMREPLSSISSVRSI

S1P2-5 = test: competitive S1Ps cell membrane binding assay against [32P]S1P, S1P2-5 reported together
Description: (§1) One way to measure affinity is use of a general competition binding assay.

S1P1 = S1P1 (Homo sapiens, UniProt P21453); test: competitive S1Ps cell membrane binding assay against [32P]S1P, S1P1
Description: as §1

S1P5 = S1P5 (Homo sapiens, UniProt Q9H228); test: competitive S1Ps cell membrane binding assay against [32P]S1P, S1P5; details: Table 5; read-out: IC50 (nM) S1P5
Description: as §1

S1P2 = S1P2 (Homo sapiens, UniProt O95136); test: competitive S1Ps cell membrane binding assay against [32P]S1P, S1P2; details: Table 6
S1P3 = S1P3 (Homo sapiens, UniProt Q99500); test: competitive S1Ps cell membrane binding assay against [32P]S1P, S1P3; details: Table 6
[1] = Table 7, read-out: IC50 (nM) S1P2-5
[2] = read-out: IC50 (nM) S1P1, Table 5

S1P5, sequence (Q9H228 whole entry, species assumed): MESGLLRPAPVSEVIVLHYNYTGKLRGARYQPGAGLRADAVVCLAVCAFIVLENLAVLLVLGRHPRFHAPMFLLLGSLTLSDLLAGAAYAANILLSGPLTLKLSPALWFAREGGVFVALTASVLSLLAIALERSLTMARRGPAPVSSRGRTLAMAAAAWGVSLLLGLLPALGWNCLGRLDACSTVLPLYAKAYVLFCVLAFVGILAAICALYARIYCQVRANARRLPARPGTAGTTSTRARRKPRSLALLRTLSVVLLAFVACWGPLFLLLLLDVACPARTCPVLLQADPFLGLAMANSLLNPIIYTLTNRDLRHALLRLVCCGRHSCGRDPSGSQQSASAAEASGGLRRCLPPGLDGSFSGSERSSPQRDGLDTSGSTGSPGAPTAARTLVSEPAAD
S1P1, sequence (P21453 whole entry, species assumed): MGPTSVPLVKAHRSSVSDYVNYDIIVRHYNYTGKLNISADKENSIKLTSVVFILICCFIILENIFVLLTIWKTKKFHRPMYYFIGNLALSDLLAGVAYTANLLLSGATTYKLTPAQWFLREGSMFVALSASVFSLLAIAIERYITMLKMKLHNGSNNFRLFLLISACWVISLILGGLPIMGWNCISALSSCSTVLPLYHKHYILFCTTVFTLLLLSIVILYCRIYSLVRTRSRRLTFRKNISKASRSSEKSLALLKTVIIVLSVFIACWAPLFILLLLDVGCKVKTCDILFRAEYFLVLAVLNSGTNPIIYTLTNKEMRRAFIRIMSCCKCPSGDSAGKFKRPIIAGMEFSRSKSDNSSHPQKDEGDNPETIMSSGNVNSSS
S1P3, sequence (Q99500 whole entry, species assumed): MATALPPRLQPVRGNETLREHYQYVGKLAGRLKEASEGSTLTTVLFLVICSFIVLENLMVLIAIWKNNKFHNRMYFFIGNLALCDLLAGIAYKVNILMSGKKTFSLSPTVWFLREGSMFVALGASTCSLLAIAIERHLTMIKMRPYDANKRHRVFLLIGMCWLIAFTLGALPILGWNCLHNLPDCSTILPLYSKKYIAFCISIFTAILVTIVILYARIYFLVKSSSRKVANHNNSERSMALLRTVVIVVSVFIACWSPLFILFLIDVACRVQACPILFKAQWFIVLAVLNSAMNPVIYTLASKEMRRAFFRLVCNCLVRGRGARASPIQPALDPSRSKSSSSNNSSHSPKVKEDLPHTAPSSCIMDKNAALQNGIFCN
S1P2, sequence (O95136 whole entry, species assumed): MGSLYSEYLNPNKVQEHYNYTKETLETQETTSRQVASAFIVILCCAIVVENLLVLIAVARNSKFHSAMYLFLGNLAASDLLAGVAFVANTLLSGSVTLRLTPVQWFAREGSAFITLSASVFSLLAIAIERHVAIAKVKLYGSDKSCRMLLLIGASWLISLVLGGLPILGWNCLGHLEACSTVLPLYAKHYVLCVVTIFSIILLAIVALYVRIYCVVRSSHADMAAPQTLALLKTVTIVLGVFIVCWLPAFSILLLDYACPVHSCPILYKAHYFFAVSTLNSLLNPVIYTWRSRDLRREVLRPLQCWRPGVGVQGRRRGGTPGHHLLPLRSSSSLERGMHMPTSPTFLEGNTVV

- IC50 (S1P4; Table 5, read-out: IC50 (nM) S1P4): > 1000 nM
- IC50 (S1P2-5; [1]): > 1000 nM
- IC50 (S1P2-5; read-out: IC50 for S1P2-5): > 1000 nM
Compound: Cc1ccccc1-c1ccc(-c2nc(-c3ccc(CN(C)CCC(=O)O)c(F)c3)no2)cc1C(F)(F)F [TZ33-21]

- IC50 (S1P2-5; [1]): > 1000 nM
Compound: OCCOCc1ccc(-c2noc(-c3ccc(OCCF)c(C(F)(F)F)c3)n2)cc1 [TZ48-77]

- IC50 (S1P2-5; [1]): > 1000 nM
Compound: OCc1ccc(-c2noc(-c3ccc(OCCF)c(C(F)(F)F)c3)n2)cc1F [TZ67-138]

- IC50 (S1P1; [2]): 34 ± 2.4 nM
Compound: FCCOc1ccc(-c2nc(-c3ccc4cc[nH]c4c3)no2)cc1C(F)(F)F [TZ73-11]

- IC50 (S1P1; IC50 (nM) S1P1, Table 5): 157 ± 24 nM
Compound: OCCn1ccc2ccc(-c3noc(-c4ccc(OCCF)c(C(F)(F)F)c4)n3)cc21 [TZ73-14]

- IC50 (S1P1; IC50 (nM) S1P1, Table 5): 57 ± 4.6 nM
Compound: OCCn1ccc2cc(-c3noc(-c4ccc(OCCF)c(C(F)(F)F)c4)n3)ccc21 [TZ73-15]

- IC50 (S1P1; IC50 (nM) S1P1, Table 5): 15 ± 2.6 nM
Compound: OC(c1ccc(-c2noc(-c3ccc(OCCF)c(C(F)(F)F)c3)n2)cc1)C(F)(F)F (stereo not shown) [TZ73-27]

- IC50 (S1P1; IC50 (nM) S1P1, Table 5): 21 ± 2.5 nM
Compound: CC(O)c1ccc(-c2noc(-c3ccc(OCCF)c(C(F)(F)F)c3)n2)cc1 (stereo not shown) [TZ73-28]

- IC50 (S1P1; IC50 (nM) S1P1, Table 5): > 1000 nM
Compound: CN(C(=O)OC(C)(C)C)c1cccc(-c2noc(-c3ccc(OCCF)c(C(F)(F)F)c3)n2)c1 [TZ73-124]

- IC50 (S1P1; IC50 (nM) S1P1, Table 5): 118 nM
Compound: OCCOCc1ccc(-c2noc(-c3ccc(OCCF)c(C(F)(F)F)c3)n2)cc1I [TZ73-126]

- IC50 (S1P1; IC50 (nM) S1P1, Table 5): 66.3 nM
Compound: Cc1ccccc1-c1ccc(-c2nc(-c3ccc(COCCO)c(I)c3)no2)cc1C(F)(F)F [TZ73-127]

- IC50 (S1P2-5; [1]): > 1000 nM
Compound: Cc1ccccc1-c1ccc(-c2nc(-c3ccc(CO)c(F)c3)no2)cc1C(F)(F)F [TZ73-135]

- IC50 (S1P1; IC50 (nM) S1P1, Table 5): 5.2 ± 2.7 nM
Compound: Cc1ccccc1-c1ccc(-c2nc(-c3ccc(CN(C)CCC(=O)O)c(I)c3)no2)cc1C(F)(F)F [TZ73-143]

- IC50 (S1P1; IC50 (nM) S1P1, Table 5): 17 ± 7 nM
Compound: OCCOCc1ccc(-c2noc(-c3ccc(OCCF)c(C(F)(F)F)c3)n2)cc1F [TZ73-144]

- IC50 (S1P1; [2]): 33.1 ± 11.1 nM
Compound: CN(CCC(=O)O)Cc1ccc(-c2noc(-c3ccc(OCCF)c(C(F)(F)F)c3)n2)cc1I [TZ73-147]

- IC50 (S1P1; IC50 (nM) S1P1, Table 5): 4.6 nM
- IC50 (S1P5): 55.6 nM
Compound: Cc1ccccc1-c1ccc(-c2nc(-c3ccc(CO)cc3)no2)cc1C(F)(F)F [TZ82-1]

- IC50 (S1P1; IC50 (nM) S1P1, Table 5): 9.8 nM
- IC50 (S1P5): 764 nM
Compound: Cc1ccccc1-c1ccc(-c2nc(-c3ccc(CCCCO)cc3)no2)cc1C(F)(F)F [TZ82-2]

- IC50 (S1P2-5; [1]): > 1000 nM
Compound: Cc1ccccc1-c1ccc(-c2nc(-c3ccc(COCCO)c(F)c3)no2)cc1C(F)(F)F [TZ82-3]

- IC50 (S1P1; IC50 (nM) S1P1, Table 5): 1.1 ± 0.1 nM
- IC50 (S1P5): 28.4 nM
Compound: Cc1ccccc1-c1ccc(-c2nc(-c3cccc4[nH]ccc34)no2)cc1C(F)(F)F [TZ82-4]

- IC50 (S1P2): > 1000 nM
- IC50 (S1P4; Table 6, read-out: IC50 for S1P4): > 1000 nM
- IC50 (S1P3): > 1000 nM
Compound: CN(CCC(=O)O)Cc1ccc(-c2noc(-c3ccc(OCCF)c(C(F)(F)F)c3)n2)cc1F [TZ82-24]

- IC50 (S1P1; IC50 (nM) S1P1, Table 5): 2.9 nM
- IC50 (S1P5): 85.2 nM
Compound: Cc1ccccc1-c1ccc(-c2nc(-c3ccc(CO)c(F)c3)no2)cc1C(F)F [TZ82-26]

- IC50 (S1P1; IC50 (nM) S1P1, Table 5): 4.9 nM
- IC50 (S1P1; IC50 (nM) S1P1, Table 7): 16.1 ± 0.3 nM
- IC50 (S1P2-5; [1]): > 1000 nM
Compound: Cc1ccccc1-c1ccc(-c2nc(-c3ccc(COCCCCCO)c(F)c3)no2)cc1C(F)(F)F [TZ82-29]

- IC50 (S1P2-5; [1]): > 1000 nM
Compound: FCCOc1ccc(-c2nc(-c3cccc4[nH]ccc34)no2)cc1C(F)(F)F [TZ82-34]

- IC50 (S1P1; [2]): 98 ± 26 nM
Compound: FCCOc1ccc(-c2nc(-c3cccc4cc[nH]c34)no2)cc1C(F)(F)F [TZ82-35]

- IC50 (S1P1; IC50 (nM) S1P1, Table 5): 57 ± 7.6 nM
Compound: FCCOc1ccc(-c2nc(-c3ccc4[nH]cnc4c3)no2)cc1C(F)(F)F [TZ82-36]

- IC50 (S1P1; IC50 (nM) S1P1, Table 5): 28 ± 5.8 nM
Compound: OCc1nc2cc(-c3noc(-c4ccc(OCCF)c(C(F)(F)F)c4)n3)ccc2[nH]1 [TZ82-37]

- IC50 (S1P1; IC50 (nM) S1P1, Table 5): > 1000 nM
Compound: CC(C)(C)OC(=O)Nc1cccc(-c2noc(-c3ccc(OCCF)c(C(F)(F)F)c3)n2)c1 [TZ82-40]
